In article PMC6213633, “Induction of ATP Release, PPIX Transport, and Cholesterol Uptake by Human Red Blood Cells Using a New Family of TSPO Ligands” (International Journal of Molecular Sciences, 2018):
Read-outs that look alike come from different tables or passages of the source.

Columns and labels:
[1] = Hemolysis induced by TSPO ligands (Hb release, absorption at 405 nm); format: cell-based; conditions: human, Hb released, mean ± SEM, N = 4, read-out: Hemolysis induced by TSPO ligands treatment
Protocol: Hemolysis leads to hemoglobin (Hb) release into the extracellular milieu, where the Hb content can be quantified by monitoring light absorption, at 405 nm. Using this procedure, we previously observed that the amount of Hb was proportional to the amount of lysed RBCs. The Hb content of the samples was determined as described above. Then, the amount of lytic ATP contributing to [ATPe] was estimated from the total amount of hemolysis cells (calculated as described above) and the intracellular ATP content of the RBCs, which under the experimental conditions was 148 pmol ATP per 10^6 RBCs, as previously reported by our group.

[2] = system: healthy and P. falciparum-infected RBCs; test: ZnPPIX uptake in healthy and infected RBCs (flow cytometry); format: cell-based, human; conditions: 20 µM ZnPPIX, 50 µM ligand
Protocol: Figure 2 ZnPPIX uptake in healthy and infected RBCs induced by TSPO ligands. Healthy RBC (A) and infected RBC (B) at 2 to 5% parasitemia were incubated in the presence of 20 µM ZnPPIX and 50 µM TSPO ligands, and the uptake of ZnPPIX was assessed at different time points by flow cytometry. MFI values were normalized to background levels for the control and the ligand-treated conditions. Data are presented as the mean ± SEM; N = 7. Statistical analyses were performed for each ligand and the control condition. Differences were considered significant when * p < 0.05; ** p < 0.01; *** p < 0.001.
P. falciparum cultures were incubated at 2–5% parasitemia (synchronized cultures, ring and trophozoite stages) in 200 µL of RPMI 10% Albumax containing 20 µM ZnPPIX. […] Cultures were kept at 37 °C, in the dark, for 3 to 18 h and further analyzed by FACS.
(§1) Fluorescence measurements in all samples of the P. falciparum’s viability, ZnPPIX uptake, cholesterol uptake, and ROS accumulation assays, were performed with a FACSCanto (BD Biosciences, Rungis, France) and further analyzed with Flowjo-3 software. […] ZnPPIX (Ex.: 488 nm, Em.: 585/42 nm), TopFluor Cholesterol (Ex.: 495 nm, Em.: 507 nm) and DCFDA (Ex.: 488 nm, Em.: 530/30 nm) levels were measured in both the infected and non-infected RBC populations, results were normalized to the corresponding solvent for each ligand.

[3] = system: P. falciparum-infected RBCs; test: Sorbitol-induced hemolysis in infected RBCs; format: cell-based, human; conditions: 50 µM ligand
Protocol: Figure 4 Sorbitol-induced hemolysis is modulated by the TSPO ligands in infected red blood cells. Infected RBCs at 2 to 5 % parasitemia were washed three times in a culture medium, without serum, and resuspended at 50% hematocrit in a media containing 10 μM (A) or 50 μM (B) TSPO ligands. Hemolysis was quantified at several time-points, by absorption at 540 nm wavelength. Data are presented as mean ± SEM; N = 4. Differences between each ligand and control condition (vehicle) were considered significant when p < 0.01.
Sorbitol hemolysis assays were carried as previously described using hemoglobin release to estimate lysis time. Monoexponential functions were fitted to the data from the sorbitol-induced hemolysis (%) (Figure 4), at different times of exposure to the ligands. Half time values (t1/2) for hemolysis were then calculated as t1/2= ln (2)/k, where k is the rate coefficient of the exponential curve.

[4] = system: healthy and P. falciparum-infected RBCs; test: TopFluor Cholesterol uptake by RBCs (flow cytometry); format: cell-based, human; conditions: 50 µM ligand; for effect on cholesterol uptake: healthy and infected RBCs
Protocol: Figure 5 Cholesterol uptake induced by TSPO ligands. Healthy (A) or infected red blood cells, at 2 to 5% parasitemia (B) were incubated in the presence of TopFluor Cholesterol and 50 µM of TSPO ligands. Cholesterol uptake was assessed at different time points by flow cytometry. MFI values were normalized to vehicle treated cells. Data are presented as mean ± SEM; N = 4. Differences between each ligand and control condition (vehicle) were considered significant when * p < 0.05.
Cholesterol uptake was measured using TopFluor Cholesterol and 50 µM of TSPO ligands. Cholesterol uptake was assessed at different time points by flow cytometry. Mean Fluorescent Intensity (MFI) values were normalized to vehicle treated cells.
Fluorescence measurements in all samples of the P. falciparum’s viability, ZnPPIX uptake, cholesterol uptake, and ROS accumulation assays, were performed with a FACSCanto (BD Biosciences, Rungis, France) and further analyzed with Flowjo-3 software. Infected-RBCs were distinguished from non-infected ones contained in the same culture by TOPRO-3 signaling (1/2, 500), with the negative level established with the same non-infected RBCs used for parasite culture. ZnPPIX (Ex.: 488 nm, Em.: 585/42 nm), TopFluor Cholesterol (Ex.: 495 nm, Em.: 507 nm) and DCFDA (Ex.: 488 nm, Em.: 530/30 nm) levels were measured in both the infected and non-infected RBC populations, results were normalized to the corresponding solvent for each ligand.

human red blood cells [5] = test: ATP release from RBCs (luciferase luminometry); format: cell-based; conditions: for induction of ATP release (comparison between ligands): 10 or 30 µM ligand, 37 °C, 10% hematocrit; for ligand-induced ATP release in presence of VDAC blocker Bcl-XLBH4: Bcl-XLBH4 10 µM; for ligand-induced ATP release in presence of pannexin-1 inhibitors: carbonexolone 10 µM or probenecid 10 µM
Protocol: Figure 6 TSPO ligand-induced ATP release. ATP release from human red blood cells was measured at 37 °C, 10% Hematocrit, as described in material and methods. Values are the ratio between extracellular ATP (ATPe) levels after and before the addition of TSPO ligands. […] Results are expressed as means ± SEM and considered different from basal (vehicle, unstimulated) values when * p < 0.05; ** p < 0.01 or from those incubated in the presence of Bcl-XLBH4 when ^# p < 0.05 and ^## p < 0.01; N = 7.
Extracellular ATP (ATPe) concentration was measured by quantitative luminometry using firefly luciferase, which catalyzes the oxidation of luciferin in the presence of ATP to produce light as previously described. The ATPe concentration was determined at discrete times (offline). Changes in [ATPe] over time were used to estimate ATP release from RBCs.
10 µL of RBCs at 10% hematocrit were incubated for 10 min, at 37 °C, in the presence of the ligand, or of an equal vehicle volume, with 30 µL of MKB medium. At discrete times, samples were centrifuged at 450× g for 3 min, at RT. Paired samples were taken to assess ATPe and hemolysis. The supernatants were stored at −20 °C, prior to the analysis. Then, 4.5 µL of the supernatant samples were added to 45 µL of the luminometry mix (MKB medium containing 0.01 µM luciferase, 0.2 mM luciferin, and 0.1 mg/mL of Coenzyme A) and placed in the assay chamber of the luminometer to determine the light intensity. At the end of the incubations, the time course of light emission was transformed into the ATPe concentration versus time using a calibration curve, with ATP stock solutions ranging from 1 to 50 µM. The results were expressed as ΔATPe (i.e., the ratio of [ATPe] before and after the addition of a given stimulus).
The increase in [ATPe] due to regulated ATP release was calculated by taking the experimentally-measured [ATPe] and subtracting the estimated [ATPe] due to hemolysis. Except where otherwise stated, the results of ATP release experiments reflected the ATP release from non-lytic origin.

human red blood cells [6] = system: human red blood cells; parameters: method as in PMID 30061676; conditions: cited from earlier work
[7] = target: T1, TSPO2-expressing RBC membranes (Homo sapiens, UniProt Q5TGU0); test: (3H) PK 11195 displacement binding on RBCs; parameters: endogenous in cells; host or cells: human red blood cells purified from fresh blood of healthy volunteers
T1 sequence (Q5TGU0 1-170): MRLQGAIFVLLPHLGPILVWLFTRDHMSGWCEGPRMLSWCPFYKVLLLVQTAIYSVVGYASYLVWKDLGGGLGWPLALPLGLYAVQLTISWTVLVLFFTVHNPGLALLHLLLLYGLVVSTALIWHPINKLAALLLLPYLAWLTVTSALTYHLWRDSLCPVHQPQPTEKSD
Protocol: The affinity of the ligands for the RBC membranes was assessed by typical displacement experiments. RBCs were exposed to 10 nM (^3H) PK 11195 and increasing concentrations of non-radiolabeled TSPO ligands.
RBCs were washed twice in phosphate buffer saline (PBS) (pH 7.4). Samples were incubated in a final incubation volume of 0.3 mL, in the presence of (^3H) PK 11195 (Perkin Elmer, Courtaboeuf, France; 83.5 Ci/mmol) and increasing concentrations of unlabeled TSPO ligands, at room temperature (RT). After 30 min incubation, assays were stopped by filtration through Whatman GF/C filters. Radioactivity trapped on the filters was determined by liquid scintillation counting (Tri-Carb 2800TR, Perkin-Elmer, Courtaboeuf, France).

[8] = system: TSPO1-enriched rat heart microsomes; parameters: method as in doi:10.1002/slct.201701565; conditions: cited from earlier work
[9] = system: P. falciparum strain FCR3; test: P. falciparum growth inhibition (flow cytometry of parasitemia); format: cell-based, Plasmodium falciparum; conditions: 10 and 50 µM
Protocol: Figure 1 TSPO ligands inhibited the P. falciparum growth. Infected RBCs were diluted to 1% parasitemia, and maintained at 1–5%, by dilution, for […]. Percentages of growth-inhibition were obtained, after two parasite cycles, by the flow cytometry analysis of parasitemia, and normalized to the control condition (solvent-treated cells). Data are presented as the mean ± SEM; N = 4. Differences between the control condition and the treatment were considered significant at ** p < 0.01; *** p < 001.
P. falciparum strain FCR3 culture was performed in RPMI 1640 medium containing 10% Albumax, at 5% hematocrit, in a 5% O2, 3% CO2 atmosphere. […] Parasitemia was determined after 48 h and 96 h (after one or two complete parasite’s cycles, respectively) by flow cytometry (FACS), as previously described.
as §1

[10] = displacement of 10 nM (3H) PK 11195, mean ± SEM, N = 3, read-out: IC50, TSPO ligands' affinity for RBC membranes

Compound	hemolysis ([1]; red blood cells (RBCs))	ZnPPIX uptake increase (effect in words) [2]	t1/2 of sorbitol-induced hemolysis relative to control samples [3]	effect on cholesterol uptake [4]	induction of ATP release (comparison between ligands) (human red blood cells [5])	ligand-induced ATP release in presence of VDAC blocker Bcl-XLBH4 (human red blood cells [5])	ligand-induced ATP release in presence of pannexin-1 inhibitors (human red blood cells [5])	non-lytic ATP efflux from RBCs (human red blood cells [6])	IC50 [7, 10]	hemolysis [1]	further results
CCN(CC)C(=O)Cn1c(=O)n2cc(-c3ccco3)nc2c2ccccc21 [NCS1018, N,N-Diethyl-2-(2-(furan-2-yl)-5-oxomidazo[1-c]quinazolin-6(5H)-yl)acetamide]	0.72 ± 0.06%	no significant effect	eight-fold higher	did not alter cholesterol uptake	most efficient in inducing ATP release	significantly inhibited	not affected	triggered non-lytic ATP efflux	590 ± 70 nM	–	–
CCCN(CCC)C(=O)Cn1c(=O)n2cc(-c3ccccc3)nc2c2ccccc21 [NCS1026, N,N-dipropyl-2-(5-oxo-2-phenylimidazo[1-c]quinazolin-6(5H)-yl)acetamide]	0.52 ± 0.06%	no significant effect	three-fold higher	–	–	–	–	–	280 ± 60 nM	–	inhibition of cholesterol uptake ([4]; 1 h of incubation): 40%; inhibition of cholesterol uptake ([4]; 5 h of incubation): 20%; IC50 [8]: 10 nM
CCC(C)N(C)C(=O)c1cc2ccccc2c(-c2ccccc2Cl)n1 (stereo not drawn) [PK 11195, reference compound]	–	–	three-fold higher	–	–	–	–	–	–	0.6 ± 0.06%	–
CN1C(=O)CN=C(c2ccc(Cl)cc2)c2cc(Cl)ccc21 [Ro5-4864, reference compound]	–	–	eight-fold higher	did not alter cholesterol uptake	a bit lower	significantly inhibited	not affected	triggered non-lytic ATP efflux	–	0.68 ± 0.16%	IC50 [7]: 1500 ± 600 nM
CN(C)C(=O)Cc1nn(-c2ccccc2)c(=O)c2c1c1ccc(Cl)cc1n2C [SSR-180,575, reference compound]	0.7 ± 0.08%	–	–	did not alter cholesterol uptake	–	–	–	–	–	–	anti-plasmodium activity (comparison between ligands) [9]: highest anti-plasmodium activity trend
CC(C)CCC[C@@H](C)[C@H]1CC[C@H]2[C@@H]3CCC4=CC(=NO)CC[C@]4(C)[C@H]3CC[C@]12C [TRO19622]	–	–	–	–	–	–	–	triggered non-lytic ATP efflux	–	–	–
